Where two headings read alike, the source gives them in different places.
What was measured:
Format in all cases: cell-based
human TLR8 = target: T1, human TLR8 (Homo sapiens, UniProt Q9NR97); assay: TLR8 inhibition reporter assay (HEK-Blue cells, secreted embryonic alkaline phosphatase reporter); settings: HEK-Blue cells overexpressing human TLR8, stimulated with R848 15.9 μM; read-out: TLR 8 IC50
T1 construct: host or cells: HEK-Blue cells (HEK293-derived reporter line)
T1 sequence (Q9NR97 27-1041): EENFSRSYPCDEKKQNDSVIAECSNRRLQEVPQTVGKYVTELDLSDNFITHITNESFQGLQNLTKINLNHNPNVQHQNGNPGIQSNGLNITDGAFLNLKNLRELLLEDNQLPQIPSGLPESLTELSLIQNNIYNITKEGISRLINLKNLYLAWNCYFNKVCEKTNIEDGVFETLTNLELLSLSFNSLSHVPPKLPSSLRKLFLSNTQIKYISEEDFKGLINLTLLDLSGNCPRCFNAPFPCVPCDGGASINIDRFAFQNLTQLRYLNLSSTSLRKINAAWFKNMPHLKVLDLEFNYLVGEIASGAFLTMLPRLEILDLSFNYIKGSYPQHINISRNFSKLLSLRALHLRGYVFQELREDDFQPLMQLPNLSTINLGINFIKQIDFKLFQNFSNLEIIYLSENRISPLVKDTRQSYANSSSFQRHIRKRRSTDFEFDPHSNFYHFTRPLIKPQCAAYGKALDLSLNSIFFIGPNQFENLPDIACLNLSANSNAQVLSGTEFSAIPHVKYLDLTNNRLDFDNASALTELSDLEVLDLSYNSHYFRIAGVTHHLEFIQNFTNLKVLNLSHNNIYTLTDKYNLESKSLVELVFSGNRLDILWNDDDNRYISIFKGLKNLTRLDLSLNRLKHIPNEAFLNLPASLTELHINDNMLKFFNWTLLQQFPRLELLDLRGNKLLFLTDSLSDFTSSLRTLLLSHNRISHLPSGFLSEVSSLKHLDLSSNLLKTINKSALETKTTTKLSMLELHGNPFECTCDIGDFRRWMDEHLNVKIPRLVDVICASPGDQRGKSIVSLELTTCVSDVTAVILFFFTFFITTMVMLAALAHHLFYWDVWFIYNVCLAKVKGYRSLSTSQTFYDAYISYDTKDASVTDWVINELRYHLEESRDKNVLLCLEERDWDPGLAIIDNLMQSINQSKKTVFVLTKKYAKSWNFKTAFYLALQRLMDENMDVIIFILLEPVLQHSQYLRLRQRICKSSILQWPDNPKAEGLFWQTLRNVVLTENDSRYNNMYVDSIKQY
Procedure, shortened: (§1)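 Cells seeded at 15000 (TLR7), 20,000 (TLR8) or 25,000 (TLR9) per well; compound 0.05 nM–50 μM, 30 min RT pre-incubation. Agonists: gardiquimod 7.5 μM, R848 15.9 μM, ODN2006 5 nM respectively. 22 h, 37 °C; SEAP via HEK-Blue Detection; % inhibition vs agonist+DMSO and known-inhibitor wells.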

human TLR9 = target: T2, human TLR9 (Homo sapiens, UniProt Q9NR96); assay: TLR9 inhibition reporter assay (HEK-Blue cells, secreted embryonic alkaline phosphatase reporter)
T2 construct: host or cells: HEK-Blue cells (HEK293-derived reporter line)
T2 sequence (Q9NR96 26-1032): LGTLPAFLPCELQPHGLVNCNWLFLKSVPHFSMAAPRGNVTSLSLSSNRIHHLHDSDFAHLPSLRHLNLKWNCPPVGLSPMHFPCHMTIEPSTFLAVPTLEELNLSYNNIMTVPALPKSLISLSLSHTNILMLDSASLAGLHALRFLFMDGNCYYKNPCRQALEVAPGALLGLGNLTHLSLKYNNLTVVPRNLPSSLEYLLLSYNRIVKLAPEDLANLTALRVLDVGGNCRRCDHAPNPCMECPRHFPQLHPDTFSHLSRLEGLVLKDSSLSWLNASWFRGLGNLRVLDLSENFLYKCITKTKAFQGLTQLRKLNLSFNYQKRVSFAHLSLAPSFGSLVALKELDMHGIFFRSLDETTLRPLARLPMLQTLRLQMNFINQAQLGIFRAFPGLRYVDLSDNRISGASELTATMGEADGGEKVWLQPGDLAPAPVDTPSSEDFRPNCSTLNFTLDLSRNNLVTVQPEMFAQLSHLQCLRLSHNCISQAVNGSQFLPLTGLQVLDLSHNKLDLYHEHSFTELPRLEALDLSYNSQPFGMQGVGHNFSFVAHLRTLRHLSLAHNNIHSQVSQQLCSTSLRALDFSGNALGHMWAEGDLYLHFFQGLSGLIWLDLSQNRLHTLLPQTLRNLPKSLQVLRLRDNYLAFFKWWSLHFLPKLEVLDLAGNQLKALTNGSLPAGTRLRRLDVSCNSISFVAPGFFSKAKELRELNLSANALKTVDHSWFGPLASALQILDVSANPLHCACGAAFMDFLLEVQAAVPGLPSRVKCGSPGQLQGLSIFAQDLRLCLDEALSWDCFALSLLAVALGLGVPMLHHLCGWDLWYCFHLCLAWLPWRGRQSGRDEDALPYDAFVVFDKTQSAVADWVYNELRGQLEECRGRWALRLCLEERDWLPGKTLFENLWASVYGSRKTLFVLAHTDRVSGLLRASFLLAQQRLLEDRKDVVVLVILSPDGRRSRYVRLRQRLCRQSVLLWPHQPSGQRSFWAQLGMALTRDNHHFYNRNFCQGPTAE
Procedure, shortened: as §1

human TLR7 = target: T3, human TLR7 (Homo sapiens, UniProt Q9NYK1); assay: TLR7 inhibition reporter assay (HEK-Blue cells, secreted embryonic alkaline phosphatase reporter); settings: HEK-Blue cells overexpressing human TLR7, stimulated with gardiquimod 7.5 μM; read-out: TLR 7 IC50
T3 construct: host or cells: HEK-Blue cells (HEK293-derived reporter line)
T3 sequence (Q9NYK1 27-1049): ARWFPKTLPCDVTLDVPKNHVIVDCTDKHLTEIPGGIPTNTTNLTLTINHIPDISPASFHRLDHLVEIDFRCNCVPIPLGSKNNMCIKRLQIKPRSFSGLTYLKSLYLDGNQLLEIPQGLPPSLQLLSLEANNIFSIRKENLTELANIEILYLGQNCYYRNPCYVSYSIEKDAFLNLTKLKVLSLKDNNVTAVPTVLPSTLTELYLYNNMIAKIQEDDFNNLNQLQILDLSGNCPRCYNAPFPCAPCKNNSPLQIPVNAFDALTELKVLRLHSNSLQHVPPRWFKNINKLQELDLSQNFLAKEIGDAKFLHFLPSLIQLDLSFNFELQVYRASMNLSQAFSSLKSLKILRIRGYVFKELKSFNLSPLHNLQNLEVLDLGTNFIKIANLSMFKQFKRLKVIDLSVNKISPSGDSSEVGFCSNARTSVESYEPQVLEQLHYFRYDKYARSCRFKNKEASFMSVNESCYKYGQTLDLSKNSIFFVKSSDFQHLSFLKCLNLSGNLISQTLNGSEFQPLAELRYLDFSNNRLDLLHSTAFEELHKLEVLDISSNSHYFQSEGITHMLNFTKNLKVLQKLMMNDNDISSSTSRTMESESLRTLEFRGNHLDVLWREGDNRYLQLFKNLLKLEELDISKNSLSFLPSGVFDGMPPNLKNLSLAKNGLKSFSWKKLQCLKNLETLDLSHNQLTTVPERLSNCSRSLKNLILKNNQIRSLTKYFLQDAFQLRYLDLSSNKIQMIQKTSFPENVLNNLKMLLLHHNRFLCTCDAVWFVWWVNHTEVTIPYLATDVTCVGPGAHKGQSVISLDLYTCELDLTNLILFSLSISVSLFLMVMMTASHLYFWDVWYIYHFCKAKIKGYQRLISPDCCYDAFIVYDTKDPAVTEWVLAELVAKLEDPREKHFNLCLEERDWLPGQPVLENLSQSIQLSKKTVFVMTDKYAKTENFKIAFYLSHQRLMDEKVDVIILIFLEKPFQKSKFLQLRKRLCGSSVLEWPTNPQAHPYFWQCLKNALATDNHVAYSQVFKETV
Procedure, shortened: as §1

[1] = HEK-Blue cells overexpressing human TLR9, stimulated with ODN2006 5 nM, read-out: TLR 9 IC50
[2] = HEK-Blue human TLR9 reporter cells
[3] = HEK-Blue cells overexpressing human TLR9, stimulated with ODN2006 5 nM, 22 hour incubation, reporter readout

Structure (SMILES)	IC50 (human TLR8) [nM]	IC50 (human TLR9; [1]) [nM]	IC50 (human TLR9; [2]) [nM]	IC50 (human TLR7) [nM]	IC50 (human TLR9) [nM]	IC50 (human TLR9; [3]) [nM]
Cn1c(-c2ccc(S(C)(=O)=O)cc2)nc2c(F)cc(C3CCN(C4CC5CCC(C4)N5C4COC4)CC3)cc21 (stereo not shown) [Example 286, 4-fluoro-1-methyl-2-(4-(methylsulfonyl)phenyl)-6-(1-(8-(oxetan-3-yl)-8-azabicyclo[3.2.1]octan-3-yl)piperidin-4-yl)-1H-benzo[d]imidazole]	> 50000	41	41	29000		
Cn1c(-c2ccc(S(C)(=O)=O)cc2)nc2ccc(C3CCN(C4CC5CCC(C4)N5C4COC4)CC3)c(F)c21 (stereo not shown) [Example 273, 7-fluoro-1-methyl-2-(4-(methylsulfonyl)phenyl)-6-(1-(8-(oxetan-3-yl)-8-azabicyclo[3.2.1]octan-3-yl)piperidin-4-yl)-1H-benzo[d]imidazole]	> 50000	303		7500	300	
Cn1c(-c2ccc(S(C)(=O)=O)cc2)nc2c(F)cc(C3CCN(C4CCN(C5CCOCC5)CC4)CC3)cc21 [Example 280, 4-fluoro-1-methyl-2-(4-(methylsulfonyl)phenyl)-6-(1′-(tetrahydro-2H-pyran-4-yl)-[1,4′-bipiperidin]-4-yl)-1H-benzo[d]imidazole]	> 50000	73		700	73	
Cn1c(-c2ccc(S(C)(=O)=O)cc2)nc2ccc(C3CCN(C4CCCN(C5CCOCC5)CC4)CC3)c(F)c21 (stereo not shown) [Example 316, 7-fluoro-1-methyl-2-(4-(methylsulfonyl)phenyl)-6-(1-(1-(tetrahydro-2H-pyran-4-yl)azepan-4-yl)piperidin-4-yl)-1H-benzo[d]imidazole]	16700	14	14	> 50000		
COc1ccc(-c2nc3ccc(C4CCN(C5CCN(C6CC6)CC5)CC4)cc3n2C)cc1OC [Example 27, 6-(1′-cyclopropyl-[1,4′-bipiperidin]-4-yl)-2-(3,4-dimethoxyphenyl)-1-methyl-1H-benzo[d]imidazole]	> 50000	106		2400		110
CC(C)CN1C2CCC1CC(N1CCC(c3cc(F)c4c(c3)nc(-c3ccc(S(C)(=O)=O)cc3)n4C)CC1)C2 (stereo not shown) [Example 210, 7-fluoro-5-(1-(8-isobutyl-8-azabicyclo[3.2.1]octan-3-yl)piperidin-4-yl)-1-methyl-2-(4-(methylsulfonyl)phenyl)-1H-benzo[d]imidazole]	> 50000			> 50000	120	
COCCN1C2CCC1CC(N1CCC(c3cc(C)c4nc(-c5ccc(OC)c(OC)c5)n(C)c4c3)CC1)C2 (single isomer, unassigned) [Example 168, 2-(3,4-dimethoxyphenyl)-6-(1-(8-(2-methoxyethyl)-8-azabicyclo[3.2.1]octan-3-yl)piperidin-4-yl)-1,4-dimethyl-1H-benzo[d]imidazole]	> 25000	51		14000	51	
COc1cc(-c2nc3c(C)cc(C4CCN(C5CCN(CC(C)C)CC5)CC4)cc3n2C)cn2ncnc12 [Example 353, 6-(6-(1′-isobutyl-[1,4′-bipiperidin]-4-yl)-1,4-dimethyl-1H-benzo[d]imidazol-2-yl)-8-methoxy-[1,2,4]triazolo[1,5-a]pyridine]	8200	16	16	100		
CCN1CCCN(Cc2ccc(-c3cc(C)c4nc(-c5ccc(S(C)(=O)=O)cc5)n(C)c4c3)cc2F)CC1 [Example 389, 6-(4-((4-ethyl-1,4-diazepan-1-yl)methyl)-3-fluorophenyl)-1,4-dimethyl-2-(4-(methylsulfonyl)phenyl)-1H-benzo[d]imidazole]	1800	327		300		330
Cc1cc(C2CCN(C3CC4CCC(C3)N4CC3CC3)CC2)cc2[nH]c(-c3ccc(S(C)(=O)=O)cc3)nc12 (stereo not shown) [Example 336, 6-(1-(8-(cyclopropylmethyl)-8-azabicyclo[3.2.1]octan-3-yl)piperidin-4-yl)-4-methyl-2-(4-(methylsulfonyl)phenyl)-1H-benzo[d]imidazole]	> 50000	77	77	25400		
Cn1c(-c2ccc(S(C)(=O)=O)cc2)nc2cc(C3CCN(C4CC5CCC(C4)N5C4CCC4)CC3)cc(F)c21 (single isomer, unassigned) [Example 216, 5-(1-(8-cyclobutyl-8-azabicyclo[3.2.1]octan-3-yl)piperidin-4-yl)-7-fluoro-1-methyl-2-(4-(methylsulfonyl)phenyl)-1H-benzo[d]imidazole]	> 50000	269		23200	270	

Source: patent US12492188B2, “1H-benzo[D]imidazole derivatives as TLR9 inhibitors for the treatment of fibrosis” (BRISTOL-MYERS SQUIBB COMPANY, priority 2020, dated 2025)
